Literature values as cited in patent US9592004B2, “Methods and systems for managing epilepsy and other neurological disorders” (CYBERONICS, INC., priority 2005, dated 2017).
Read-outs that look alike come from different tables or passages of the source.

Tests used:
[1] = system: seizure; details: intranasal
[2] = system: seizures
[3] = not given; remark: listed apart in the source
[4] = system: dopaminergic and serotonergic neurotransmission; details: in vivo microdialysis
[5] = system: rat hippocampal slices; details: 10-30 μg/mL
[6] = system: cultured mouse spinal cord neurons; details: 10-30 μg/mL
[7] = system: partial seizures; details: controlled trials, adjunctive therapy, adults, oral
[8] = system: sodium channels; details: in vitro
[9] = system: carbonic anhydrase
[10] = system: GABA/benzodiazepine receptor ionophore complex; details: in vitro; does not produce changes in chloride flux
[11] = system: T-type Ca^2+ currents; details: in vitro
[12] = long term therapy, per daily dose of 1 mg/kg of primidone

Compound: Cc1ncc2n1-c1ccc(Cl)cc1C(c1ccccc1F)=NC2 [Midazolam, midazolam]
- time to terminate a seizure [1]: 30 s

Compound: O=C1NC(=O)C(c2ccccc2)(c2ccccc2)N1 [Phenytoin, diphenylhydantoin]
- concentration giving chronic control of seizures [2]: above 10 μg/ml
- concentration at which toxic effects such as nystagmus develop: around 20 μg/ml

Compound: CCC1(C)CC(=O)NC1=O (stereo not shown) [ethosuximide, Ethosuximide]
- average plasma concentration ([3]; long-term therapy, per daily dose of 1 mg/kg): about 2 μg/ml

Compound: CCC1(c2ccccc2)C(=O)NC(=O)NC1=O [phenobarbital, Phenobarbital]
- average plasma concentration ([3]; long term therapy in adults, per daily dose of 1 mg/kg): about 10 μg/ml
- average plasma concentration [3, 12]: about 2 μg/ml

Compound: CCC1(c2ccccc2)C(=O)NCNC1=O [primidone, Primidone]
- average plasma concentration [3, 12]: about 1 μg/ml

Compound: NS(=O)(=O)Cc1noc2ccccc12 [zonisamide, 1,2-benzisoxazole-3-methanesulfonamide]
- effect on dopaminergic and serotonergic neurotransmission [4]: facilitates both dopaminergic and serotonergic neurotransmission
- effect on neuronal or glial uptake of [3H]-GABA [5]: without affecting
- effect on synaptically-driven electrical activity [6]: suppresses synaptically-driven electrical activity
- effect on postsynaptic GABA or glutamate responses ([6]; cultured mouse spinal cord neurons): without affecting postsynaptic GABA or glutamate responses
- effective doses [7]: 100 to 600 mg/day
- effect on sodium channels [8]: blocks sodium channels
- carbonic anhydrase inhibiting activity [9]: weak carbonic anhydrase inhibiting activity
- binding to GABA/benzodiazepine receptor ionophore complex [10]: binds to the GABA/benzodiazepine receptor ionophore complex in an allosteric fashion
- effect on T-type Ca2+ currents [11]: reduces voltage-dependent, transient inward currents
